Data set [1] has as its system isolated rat sciatic nerve. Briefly: tissue or blood. As to conditions: for IT50: unit not given in Table 3, seconds per Table 2. An excerpt:
The ex vivo studies used both male and female rats weighing between 230 and 250 g. Animals were sacrificed using light anaesthesia with CO2 and cervical dislocation. The sciatic nerve of the rat, consisting of 27,000 sciatic nerve fibres, was isolated in a three-chamber recording bath (Fig. 5b). The sciatic nerves were dissected from the spinal cord to the knee, immersed in oxygenated (O2, 100%) saline solution and cleaned. The composition of the saline was (in mmoles/L): 136 NaCl, 11 glucose, 4.7 KCl, 2.4 CaCl2, 1.1 MgCl2, 1 NaHCO3, 10 HEPES, pH = 7.2). All experiments were performed at a constant temperature, 26.0±1.0°C. […] The nerve was mounted in a three-chambered recording bath made of Plexiglas, which is described elsewhere, [30]. The recording bath consisted of the recording (R in Fig. 5b), perfusion (P) and stimulating (S) chambers, each with a volume of 12 mL. The nCAP (Fig. 5a) was generated by stimulating (1 Hz) the part of the nerve in the stimulating chamber and was recorded in the recording chamber every second using standard electrophysiological methods. The nCAP was monitored throughout the experiment as an indication of the vitality of the nerve fibres in the recording bath. […] Immediately after the nCAP was eliminated, the saline+compound was removed and the nerve was washed out. Then, recovery of the nCAP in normal stagnant saline was monitored for 24 h. It is worth noting that the recording bath is designed in such a way that the chambers with the saline and 2-H (the nerves and the recording electrodes) was shielded from the air by using the cover (c in Fig. 5b) to avoid evaporation of the volatile 2-H. The saline with 2-H was added through a small diameter opening on the cover.
For further data analysis, the amplitude of the nCAPs, estimated from baseline to peak (Fig. 5), were measured at a specific time (every 1.0 s, 1.0 min or 1.0 h) and were expressed as a percentage of the amplitude of the nCAP at t = 0 (which was considered to be 100%). In the neuropharmacological experiments, time t = 0 was considered the time before application of the compound under investigation. […] The data were fitted in the program GraphPad Prism 5.0 using a one-phase exponential decay equation for the IC50. Data were analyzed by one-way ANOVA and Bonferroni’s post hoc tests, when required. Significance was determined using Students t-test or ANOVA as appropriate (p<0.05).

A further data set addresses T1, hNav1.6 channels (Homo sapiens, UniProt Q9UQD0).
T1 construct: expressed in transfected cells; host or cells: CHO-K1 (ATCC CCL-61)
Briefly: Patch-clamp (PatchXpress 7000A) on transfected CHO cells, hNav1.6. The class given is cell-based. To be noted: CHO cells, n = 6, mean ± SEM, 2-H exposure limited to 3 min. An excerpt:
To test whether 2-H can act by blocking VGNaCs, the PatchXpress 7000A was used. Mammalian CHO (Chinese hamster ovary) transfected with ion hNav1.2 and hNav1.6 channels cDNAs (SCN2A and SCN8A genes) were exposed to 2-H under both tonic and phasic conditions. The mammalian CHO-K1 epithelial embryonic cell line (ATCC number CCL-61) from Cricetulus griseus was obtained from ATCC, Manassas, VA. CHO-K1 cells were transfected with either hNav1.2 or hNav1.6 channel cDNA (SCN2A and SCN8A genes, respectively) and were exposed to 2-H under both tonic and phasic conditions.
The effects of 2-H were evaluated on hNav1.2 at 0.73, 1.46, 2.19, and 2.92 mg/mL and on hNav1.6 channels at 0.1, 0.36, 0.73, and 1.46 mg/mL, with each concentration tested in at least six cells (n = 6). Cells were exposed to each concentration of 2-H and measurements of the inward current were obtained within the first 3 min of exposure. […] Since the PatchXpress has open cell chambers where the testing occurs, there is no way to hermetically seal the experiment.
Based on this analysis, we estimated the IC50.

A further data set deals with rat sciatic nerve. As to conditions: 80 mM, rat sciatic nerve in vitro; cited from earlier work.
The subject of another data set is wax moth larvae (WML). Briefly: Locomotory pattern of tethered wax moth larvae after injection. As to conditions: large WML. In kind it is in vivo, Galleria mellonella. An excerpt:
To monitor the constant locomotory pattern of WML, the probe of a force-displacement transducer (FT-03C, Grass Instrument Company, USA), attached to a micromanipulator, was hooked onto the tail of the WML, while the head was carefully pinned to a wax substrate, [14]. The electrical signal generated by the rhythmic force produced during locomotion was amplified and fed to a computer through a data acquisition card interface (Keithley KPCI 3102, Keithley Instruments, Cleveland, OH, USA). Software designed using the facilities of Labview (Labview 5.1, National Instruments USA) permitted analysis of the recorded data.

Where [2] appears, read: Table 3, 3.41 mg/mL, unit not given in Table 3, s.

≈ marks a conversion by molar mass, not a printed value. Marks after values point to notes of the source that are not given here.

T1 sequence (Q9UQD0 whole entry): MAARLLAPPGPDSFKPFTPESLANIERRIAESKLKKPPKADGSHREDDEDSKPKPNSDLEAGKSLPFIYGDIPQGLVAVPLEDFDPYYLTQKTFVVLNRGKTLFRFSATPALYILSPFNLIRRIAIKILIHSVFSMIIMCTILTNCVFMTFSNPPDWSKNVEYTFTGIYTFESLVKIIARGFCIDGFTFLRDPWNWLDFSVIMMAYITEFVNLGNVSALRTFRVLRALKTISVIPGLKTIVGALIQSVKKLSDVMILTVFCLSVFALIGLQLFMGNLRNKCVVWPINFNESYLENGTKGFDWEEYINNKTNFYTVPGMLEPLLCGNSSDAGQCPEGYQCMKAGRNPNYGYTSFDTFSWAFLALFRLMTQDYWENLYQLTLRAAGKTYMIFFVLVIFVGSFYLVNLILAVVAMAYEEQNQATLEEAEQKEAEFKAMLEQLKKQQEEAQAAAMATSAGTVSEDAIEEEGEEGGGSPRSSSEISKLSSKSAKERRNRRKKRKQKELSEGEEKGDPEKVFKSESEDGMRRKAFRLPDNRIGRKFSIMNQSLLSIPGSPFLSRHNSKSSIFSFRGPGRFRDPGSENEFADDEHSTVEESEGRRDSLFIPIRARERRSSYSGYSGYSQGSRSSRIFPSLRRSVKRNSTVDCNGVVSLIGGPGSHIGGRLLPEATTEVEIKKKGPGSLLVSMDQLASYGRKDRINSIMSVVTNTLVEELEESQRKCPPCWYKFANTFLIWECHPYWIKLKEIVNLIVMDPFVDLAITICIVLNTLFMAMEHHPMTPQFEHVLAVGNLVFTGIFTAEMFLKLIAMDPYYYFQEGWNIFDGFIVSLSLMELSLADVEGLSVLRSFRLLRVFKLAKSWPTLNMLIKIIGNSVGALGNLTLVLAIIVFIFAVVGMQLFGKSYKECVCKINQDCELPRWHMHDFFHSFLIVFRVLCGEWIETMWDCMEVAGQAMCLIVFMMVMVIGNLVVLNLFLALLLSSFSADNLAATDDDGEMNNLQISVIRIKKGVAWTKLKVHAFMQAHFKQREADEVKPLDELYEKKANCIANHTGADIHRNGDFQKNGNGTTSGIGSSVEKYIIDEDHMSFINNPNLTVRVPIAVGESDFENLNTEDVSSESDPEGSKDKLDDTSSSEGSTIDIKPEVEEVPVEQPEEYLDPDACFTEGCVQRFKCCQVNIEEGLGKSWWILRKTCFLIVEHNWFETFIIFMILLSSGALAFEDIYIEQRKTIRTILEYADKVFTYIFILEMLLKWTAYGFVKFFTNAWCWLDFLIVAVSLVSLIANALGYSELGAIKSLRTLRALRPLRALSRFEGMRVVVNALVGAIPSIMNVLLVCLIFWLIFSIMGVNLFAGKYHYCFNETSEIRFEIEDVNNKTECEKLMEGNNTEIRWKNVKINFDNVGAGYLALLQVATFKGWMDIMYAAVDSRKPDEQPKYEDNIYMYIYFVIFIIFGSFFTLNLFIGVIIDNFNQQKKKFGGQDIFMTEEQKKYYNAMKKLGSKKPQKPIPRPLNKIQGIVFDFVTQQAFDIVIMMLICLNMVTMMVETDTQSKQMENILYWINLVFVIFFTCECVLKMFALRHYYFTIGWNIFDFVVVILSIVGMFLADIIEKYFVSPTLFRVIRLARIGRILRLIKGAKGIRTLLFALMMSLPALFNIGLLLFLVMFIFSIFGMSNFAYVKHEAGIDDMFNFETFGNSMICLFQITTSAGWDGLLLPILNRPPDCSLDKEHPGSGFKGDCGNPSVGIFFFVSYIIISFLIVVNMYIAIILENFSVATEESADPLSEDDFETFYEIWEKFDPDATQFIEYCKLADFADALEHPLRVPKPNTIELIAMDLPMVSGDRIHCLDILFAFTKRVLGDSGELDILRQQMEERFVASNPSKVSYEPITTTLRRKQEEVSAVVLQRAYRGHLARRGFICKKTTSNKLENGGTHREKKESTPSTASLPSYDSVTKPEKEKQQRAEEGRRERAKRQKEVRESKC

Regarding `CCCCC(C)=O` [2-hexanone], in data set [1] (setting [2]), the IT0 came to 401.00 ± 33.20 s. In addition, in data set [1] (Table 3, 3.41 mg/mL), the IT50 was determined as 74.42 ± 0.79 s.
On to `CCCCCCC(C)=O` [2-octanone], for which, in data set [1] (setting [2]), the IT0 worked out at 555.00 ± 75.00 s. In data set [1] (Table 3, 3.41 mg/mL), this compound came in with an IT50 of 81.45 ± 1.58 s.
Turning to `CCCC(C)=O` [2-pentanone], the results for the IT0 result in data set [1] (3.41 mg/mL) and in data set [1] (setting [2]) were “greater than 24 h” and “No measurable”, respectively. The compound further had an IT50 in data set [1] (Table 3, 3.41 mg/mL) of 390.60 ± 0.10 s.
As for `CCCCC(=O)CC` [3-heptanone], the IT0 in data set [1] (setting [2]) is listed as 258.00±11.47^b seconds. In addition, the IT50 in data set [1] (Table 3, 3.41 mg/mL) amounted to 40.82 ± 1.67 s.
For `CCCCCC(=O)CC` [3-octanone], the IT0 in data set [1] (setting [2]) came out at 722.50 ± 95.66 s. Besides, the IT50 in data set [1] (Table 3, 3.41 mg/mL) turned out to be 117.10 ± 0.53 s.
In data set [1] (setting [2]), `CCC(=O)CC` [3-pentanone] displayed an IT0 of 765.00 ± 86.60 s. The compound further had an IT50 in data set [1] (Table 3, 3.41 mg/mL) of 230.30 ± 1.29 s.
As to `CCCC(=O)CCC` [4-heptanone], the IT0 in data set [1] (setting [2]) is reported as 283.57±16.89^b seconds. The IT50 in data set [1] (Table 3, 3.41 mg/mL) was 45.24 ± 0.44 s.
Turning to `CCN(CC)CC(=O)Nc1c(C)cccc1C` [lidocaine], the “IT0 (time required for 100% inhibition of the nCAP)” value in data set [1] (1.41 mg/mL) amounted to 320.3 ± 14.96 s; in data set [1] (2.28 mg/mL), 186.8 ± 8.07 s; in data set [1] (3.41 mg/mL), 147.50 ± 9.96 s; in data set [1] (10 mg/mL), 101.3 ± 2.16 s. For the same compound, the “IT50 (time to inhibit nCAP amplitude to 50% of control)” value in data set [1] (1.41 mg/mL) amounted to 32.23 ± 3.16 s; in data set [1] (2.28 mg/mL) it was 30.9 ± 0.22 s; in data set [1] (3.41 mg/mL) it was 27.11 ± 3.16 s; in data set [1] (10 mg/mL), 12.0 ± 0.95 s. Besides, the IC50 was 337 µg/mL (≈ 1440 µM) in data set [1] (Rattus norvegicus, read-out: IC50 from concentration-response curves of the IT0 values); 299 µM against hNav1.6 channels (hNav1.6 IC50, Phasic Experiment); 1240 µM at hNav1.6 channels (hNav1.6 IC50, Tonic Experiment). In addition, the “recovery of nCAP amplitude after wash with normal saline” value in data set [1] (after elimination of nCAP, remained at this level for at least 24 h, n = 8) came out at 95.5%. Moreover, the “effect on axonal membrane” value in the data set with rat sciatic nerve is listed as “disrupts the axonal membrane”. The “time to full recovery of locomotory pattern” value with wax moth larvae (WML) (0.81 mg injected, n = 5) was determined as 6.42 h. Moreover, in the data set with wax moth larvae (WML) (1.63 mg injected, 12 cases), the “effect of injection on large WML” value is given as “lethal effect”.

The values above are taken from article PMC3472974, “The Bite of the Honeybee: 2-Heptanone Secreted from Honeybee Mandibles during a Bite Acts as a Local Anaesthetic in Insects and Mammals” (PLoS ONE, 2012).
